Measured values as given in PMC12281424, “A Rac-specific competitive inhibitor of guanine nucleotide binding reduces metastasis in triple-negative breast cancer” (Cell Reports Medicine, 2025).

Assays:
[1] = biological target: PI3K (p110a(E545K)/p85a)(h) (Homo sapiens, UniProt P42336, E545K); assay: Kinase Profiler; type: biochemical
Experimental: (§1) The kinase profiler was performed by the company Eurofins (Discovery, Panlab and Cerep).

[2] = biological target: TAK1(h) (Homo sapiens, UniProt O43318); assay: Kinase Profiler; type: biochemical
Experimental: (§2) Blood cell counts, kinase profiler, safety screen, bacterial cytotoxicity, Ames, micronucleus assays were performed by the company Eurofins (France). The kinase profiler was performed by the company Eurofins (Discovery, Panlab and Cerep).

[3] = biological target: NEK6(h) (Homo sapiens, UniProt Q9HC98); assay: Kinase Profiler; type: biochemical
Experimental: as §1

[4] = biological target: EphA5(h) (Homo sapiens, UniProt P54756); assay: Kinase Profiler; type: biochemical
Experimental: as §2

[5] = biological target: Dopamine D1 (Homo sapiens, UniProt P21728); assay: Safety screen; type: binding
Experimental: (§3) Blood cell counts, kinase profiler, safety screen, bacterial cytotoxicity, Ames, micronucleus assays were performed by the company Eurofins (France).

[6] = biological target: GRK3(h) (Homo sapiens, UniProt P35626); assay: Kinase Profiler; type: biochemical
Experimental: as §2

[7] = biological target: RAC1 (Homo sapiens, UniProt P63000); assay: Nucleotide exchange kinetics (mant-GTP/mant-GDP fluorescence); type: biochemical; parameters: Full-length RAC1 carrying a 6xHis tag in C-terminus was purified as previously described; 6xHis (C); made in house
Experimental: Figure 2 Identification of a new RAC1 inhibitor (A) Effect of A41 and NSC23766 on ruffle formation (white arrows) induced by EGF (10 ng/mL) in NIH 3T3 cells in serum-free culture medium (CTL). Inhibitors were added at indicated concentration 1 h prior to EGF stimulation. To assess cytoskeleton organization, cells were incubated with Alexa Fluor 488 phalloidin to visualize F-actin. Results shown are representative of 3 independent experiments. Corresponding concentration-response curves have been established by counting the percentages of cells with ruffles (scale bars: 10 μm). (B) Immunoblot analysis and associated quantification of RAC-GTP level and total RAC expression in NIH 3T3 cells stimulated by EGF (10 ng/mL, 5 min) and pre-incubated or not (−) with NSC23766, A41, or A415 at 10^−5 M for 1 h (∗∗∗p < 0.001 vs. controls without EGF stimulation, ^###p < 0.001 vs. controls with EGF stimulation) (N > 3). (C) Representative surface plasmon resonance (SPR) sensograms of binding of immobilized RAC1 with increasing concentrations of A41 with or without EDTA (20 mM) (N > 3). (D) Representative in vitro nucleotide exchange catalyzed by the DH-PH of TIAM (10 nM) measured by the binding of fluorescent mant-GTP (1 μM) to RAC1 (0.5 μM, preloaded with GDP) in the presence of indicated concentrations of A41 (out of N = 6). Dotted lines correspond to the experimental curves, and continuous lines represent the fit of experimental points. (E) Kobs and Kmax were determined in each condition (N = 6). (F) Predicted binding modes of A4 to the NSC23766-binding site (left) or the GDP-binding pocket of RAC1 (right). In the NSC23766-binding site of RAC1, the compound A4 (carbon atoms in blue) makes 2 hydrogen bonds (green dotted line) with Ser71 (S71) and 10 hydrophobic interactions (pink dotted line) with Ala3 (A3), Lys5 (K5), Val36 (V36), Trp56 (W56), Tyr64 (Y64), and Leu67 (L67) leading to a docking score of −6.03 kcal/mol. The GDP molecule is shown with fine line. The P loop is shown in yellow, the switch 1 in orange, and the switch 2 in green. In the GDP-binding pocket, A4 establishes 6 hydrogen bonds with Gly15 (G15), Lys16 (K16), Cys18 (C18), and Lys116 (K116), 1 carbon hydrogen bond with Lys116, and 9 hydrophobic interactions with Cys18, Ile33 (I33), Lys116, Leu119 (L119), and Leu160 (L160), resulting in a docking score of −10.32 kcal/mol.
Figure 3 Inhibitory mechanism of A41 (A–D) RAC1 activity was monitored by the change in mant-GTP/GDP fluorescence induced by its binding to or releasing from RAC1 (A–D). GDP-bound RAC1 (0.5 μM) was incubated with TRIO (10 nM) and the indicated concentrations of mant-GTP without and with A41 (5 μM) (A–C). Mant-GDP-bound RAC1 (0.5 μM) was incubated with TRIO (10 nM) and GTP (1 μM) without and with A41 (5 μM) (D). AU: arbitrary fluorescence units. All experiments were done in triplicate. Kmax and Kmin are expressed as mean ± SEM. ∗∗p < 0.01 and ∗∗∗p < 0.001 vs. TRIO. (E) Deconvoluted mass spectra generated from crude mass spectrum analyses to evaluate RAC1 photolabeling with [N3]-A41 by LC-HRMS on native protein. (F) Representative mass spectra of both labeled and unlabeled […] peptide during LC-HRMS analysis of RAC1 photolabeling with [N3]-A41 after trypsin digestion. (G) Predicted binding mode of A41 to the GDP-binding pocket of RAC1. Compound A41 (orange) makes 4 hydrogen bonds (green dotted line) with Lys16 (K16), Cys18 (C18), and Lys116 (K116), 2 carbon hydrogen bond (light green dotted line) with Val14 (V14) and Lys116 (K116), and 7 hydrophobic interactions (pink dotted line) with Cys18 (C18), Phe28 (F28), Lys116 (K116), Ala159 (A159), and Leu160 (L160). The P loop is shown in yellow, the switch 1 in orange, and the switch 2 in green.
Full-length RAC1 carrying a 6xHis tag in C-terminus was purified as previously described.[64] Full-length RAC2, RHOG, RHOA and CDC42 were purified as previously described.[64]^,[65] […]

[8] = biological target: Lck(h) (Homo sapiens, UniProt P06239); assay: Kinase Profiler; type: biochemical
Experimental: as §1

[9] = biological target: Adrenergic α2A (Homo sapiens, UniProt P08913); assay: Safety screen; type: binding
Experimental: as §3

[10] = biological target: CaMKIIδ(h) (Homo sapiens, UniProt Q13557); assay: Kinase Profiler; type: biochemical
Sequence of CaMKIIδ(h) (Q13557 whole entry): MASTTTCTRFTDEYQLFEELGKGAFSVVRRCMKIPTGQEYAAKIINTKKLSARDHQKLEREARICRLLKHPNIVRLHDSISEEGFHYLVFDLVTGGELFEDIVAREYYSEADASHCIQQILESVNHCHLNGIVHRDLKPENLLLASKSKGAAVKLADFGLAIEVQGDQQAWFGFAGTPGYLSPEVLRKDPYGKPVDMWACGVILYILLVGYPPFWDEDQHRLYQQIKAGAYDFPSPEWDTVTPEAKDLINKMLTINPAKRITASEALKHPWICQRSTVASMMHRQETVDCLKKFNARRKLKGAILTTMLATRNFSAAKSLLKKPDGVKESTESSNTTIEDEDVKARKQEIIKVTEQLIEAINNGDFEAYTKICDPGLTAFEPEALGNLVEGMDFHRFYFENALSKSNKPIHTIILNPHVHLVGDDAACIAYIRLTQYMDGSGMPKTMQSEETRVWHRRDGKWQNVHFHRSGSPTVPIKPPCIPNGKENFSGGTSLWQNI
Experimental: as §1

Sequence of PI3K (p110a(E545K)/p85a)(h) (P42336 whole entry E545K): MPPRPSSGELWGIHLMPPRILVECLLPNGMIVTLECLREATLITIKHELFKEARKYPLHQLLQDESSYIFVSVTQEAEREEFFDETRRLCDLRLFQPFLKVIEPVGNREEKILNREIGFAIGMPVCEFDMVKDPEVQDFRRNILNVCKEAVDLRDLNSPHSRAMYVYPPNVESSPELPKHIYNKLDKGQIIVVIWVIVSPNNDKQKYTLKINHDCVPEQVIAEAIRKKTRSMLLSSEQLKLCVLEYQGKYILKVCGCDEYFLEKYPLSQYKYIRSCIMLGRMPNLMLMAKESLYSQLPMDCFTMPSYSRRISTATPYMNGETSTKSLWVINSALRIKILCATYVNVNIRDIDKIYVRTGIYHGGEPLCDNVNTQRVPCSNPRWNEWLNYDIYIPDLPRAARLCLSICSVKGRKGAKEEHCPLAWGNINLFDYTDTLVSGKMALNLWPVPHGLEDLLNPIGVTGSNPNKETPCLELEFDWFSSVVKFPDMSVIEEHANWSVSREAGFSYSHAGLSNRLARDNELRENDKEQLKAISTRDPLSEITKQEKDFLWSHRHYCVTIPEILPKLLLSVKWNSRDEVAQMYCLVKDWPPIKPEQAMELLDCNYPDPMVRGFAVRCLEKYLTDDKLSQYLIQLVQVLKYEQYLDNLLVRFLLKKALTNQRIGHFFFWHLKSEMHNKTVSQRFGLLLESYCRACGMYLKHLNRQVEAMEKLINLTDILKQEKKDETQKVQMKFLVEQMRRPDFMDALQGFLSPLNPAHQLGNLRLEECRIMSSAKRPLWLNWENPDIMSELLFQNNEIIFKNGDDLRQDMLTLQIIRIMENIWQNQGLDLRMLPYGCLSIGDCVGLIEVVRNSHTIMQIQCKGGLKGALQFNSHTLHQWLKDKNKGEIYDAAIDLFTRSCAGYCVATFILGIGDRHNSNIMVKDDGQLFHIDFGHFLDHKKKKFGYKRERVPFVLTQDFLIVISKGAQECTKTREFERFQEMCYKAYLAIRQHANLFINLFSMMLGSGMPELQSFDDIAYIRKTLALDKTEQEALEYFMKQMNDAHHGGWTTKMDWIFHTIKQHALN
Sequence of PI3K (p110a(E545K)/p85a)(h) (P27986 whole entry partner): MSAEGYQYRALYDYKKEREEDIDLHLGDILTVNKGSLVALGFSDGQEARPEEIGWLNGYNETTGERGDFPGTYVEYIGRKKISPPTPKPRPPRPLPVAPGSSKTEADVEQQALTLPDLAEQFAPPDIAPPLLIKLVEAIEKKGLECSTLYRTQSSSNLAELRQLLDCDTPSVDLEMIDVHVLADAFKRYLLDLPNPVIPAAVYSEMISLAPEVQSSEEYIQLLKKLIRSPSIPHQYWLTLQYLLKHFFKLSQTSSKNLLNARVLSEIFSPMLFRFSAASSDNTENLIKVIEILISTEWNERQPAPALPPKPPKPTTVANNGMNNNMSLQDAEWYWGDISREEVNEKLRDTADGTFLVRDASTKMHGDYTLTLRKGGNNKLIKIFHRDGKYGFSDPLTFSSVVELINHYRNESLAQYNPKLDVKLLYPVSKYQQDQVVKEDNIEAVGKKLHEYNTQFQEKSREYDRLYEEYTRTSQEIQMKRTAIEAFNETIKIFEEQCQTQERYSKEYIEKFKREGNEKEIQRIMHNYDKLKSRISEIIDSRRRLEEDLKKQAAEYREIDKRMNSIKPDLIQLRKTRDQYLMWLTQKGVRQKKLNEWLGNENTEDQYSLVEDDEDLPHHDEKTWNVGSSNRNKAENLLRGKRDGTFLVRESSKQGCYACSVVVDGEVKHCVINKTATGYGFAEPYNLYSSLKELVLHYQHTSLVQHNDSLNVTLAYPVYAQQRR
Sequence of Dopamine D1 (P21728 whole entry): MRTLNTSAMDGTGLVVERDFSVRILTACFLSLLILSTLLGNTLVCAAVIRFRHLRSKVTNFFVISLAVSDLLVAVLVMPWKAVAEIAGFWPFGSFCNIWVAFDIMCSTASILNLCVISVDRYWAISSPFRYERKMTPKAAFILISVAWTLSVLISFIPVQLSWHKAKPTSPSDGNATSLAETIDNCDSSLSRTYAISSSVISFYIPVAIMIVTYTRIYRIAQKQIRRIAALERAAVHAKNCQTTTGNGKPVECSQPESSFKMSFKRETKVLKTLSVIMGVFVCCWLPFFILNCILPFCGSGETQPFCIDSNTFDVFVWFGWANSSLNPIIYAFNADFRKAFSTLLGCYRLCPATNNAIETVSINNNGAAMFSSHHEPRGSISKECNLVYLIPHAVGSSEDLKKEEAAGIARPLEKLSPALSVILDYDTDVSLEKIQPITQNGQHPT
Sequence of GRK3(h) (P35626 whole entry): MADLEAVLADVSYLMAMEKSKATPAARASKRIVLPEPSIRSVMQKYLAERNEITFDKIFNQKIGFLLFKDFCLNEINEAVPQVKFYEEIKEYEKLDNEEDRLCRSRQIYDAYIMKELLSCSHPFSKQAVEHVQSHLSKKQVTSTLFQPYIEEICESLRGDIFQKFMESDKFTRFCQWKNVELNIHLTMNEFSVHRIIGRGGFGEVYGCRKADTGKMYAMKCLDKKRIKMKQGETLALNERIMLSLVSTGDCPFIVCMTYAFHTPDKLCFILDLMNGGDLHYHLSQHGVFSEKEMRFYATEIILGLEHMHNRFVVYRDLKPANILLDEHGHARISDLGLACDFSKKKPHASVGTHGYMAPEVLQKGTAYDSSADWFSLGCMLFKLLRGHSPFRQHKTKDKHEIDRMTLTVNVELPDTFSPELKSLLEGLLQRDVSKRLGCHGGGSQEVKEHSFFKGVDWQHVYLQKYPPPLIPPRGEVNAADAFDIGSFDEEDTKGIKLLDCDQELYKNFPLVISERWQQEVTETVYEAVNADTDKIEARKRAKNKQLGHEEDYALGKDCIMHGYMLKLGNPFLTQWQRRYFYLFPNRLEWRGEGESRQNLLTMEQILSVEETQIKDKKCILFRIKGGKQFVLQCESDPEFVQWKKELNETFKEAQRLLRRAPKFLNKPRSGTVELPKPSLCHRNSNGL
Sequence of NEK6(h) (Q9HC98 whole entry): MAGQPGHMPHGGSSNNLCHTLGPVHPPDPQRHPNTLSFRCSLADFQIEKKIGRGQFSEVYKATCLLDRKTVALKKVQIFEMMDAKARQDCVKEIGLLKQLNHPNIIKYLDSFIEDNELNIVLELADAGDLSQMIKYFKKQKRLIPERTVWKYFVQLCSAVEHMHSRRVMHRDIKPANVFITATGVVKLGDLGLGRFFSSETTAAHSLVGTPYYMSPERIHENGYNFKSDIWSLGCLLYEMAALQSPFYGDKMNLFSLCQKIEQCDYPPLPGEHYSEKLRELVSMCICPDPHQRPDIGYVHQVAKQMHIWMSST
Sequence of EphA5(h) (P54756 25-1037): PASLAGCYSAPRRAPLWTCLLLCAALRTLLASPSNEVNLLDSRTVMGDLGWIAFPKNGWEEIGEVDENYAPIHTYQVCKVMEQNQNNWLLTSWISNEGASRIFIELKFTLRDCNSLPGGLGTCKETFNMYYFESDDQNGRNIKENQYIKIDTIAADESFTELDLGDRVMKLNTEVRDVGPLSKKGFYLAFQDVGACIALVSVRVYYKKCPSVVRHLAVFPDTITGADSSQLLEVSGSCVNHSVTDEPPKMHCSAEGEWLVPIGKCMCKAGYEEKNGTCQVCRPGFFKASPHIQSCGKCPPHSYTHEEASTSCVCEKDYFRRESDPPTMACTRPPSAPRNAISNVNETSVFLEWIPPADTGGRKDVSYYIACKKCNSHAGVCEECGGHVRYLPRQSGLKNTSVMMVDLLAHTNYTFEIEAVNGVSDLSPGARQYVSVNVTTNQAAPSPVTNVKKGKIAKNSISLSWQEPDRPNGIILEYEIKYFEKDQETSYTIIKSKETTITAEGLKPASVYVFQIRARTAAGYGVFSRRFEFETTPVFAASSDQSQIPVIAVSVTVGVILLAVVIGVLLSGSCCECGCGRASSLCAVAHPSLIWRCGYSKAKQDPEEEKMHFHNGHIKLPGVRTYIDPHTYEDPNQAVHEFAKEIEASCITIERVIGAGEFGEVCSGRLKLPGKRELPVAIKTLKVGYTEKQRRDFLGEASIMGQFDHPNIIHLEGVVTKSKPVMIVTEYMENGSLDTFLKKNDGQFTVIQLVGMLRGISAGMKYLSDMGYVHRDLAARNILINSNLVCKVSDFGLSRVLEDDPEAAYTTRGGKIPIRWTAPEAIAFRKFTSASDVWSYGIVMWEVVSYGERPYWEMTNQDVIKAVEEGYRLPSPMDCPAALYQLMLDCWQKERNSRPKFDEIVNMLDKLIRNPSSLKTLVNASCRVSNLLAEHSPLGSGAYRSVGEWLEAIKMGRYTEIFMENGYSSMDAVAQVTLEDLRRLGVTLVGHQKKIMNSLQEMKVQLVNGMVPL

COc1ccc(OC)c(NS(=O)(=O)c2ccc(NC(=O)CCSc3ccc(C)cc3)cc2)c1 [Compound A41]
Activity(%) [1]: 105%
Activity(%) [2]: 107%
Activity(%) [3]: 109%
Activity(%) [4]: 110%
% inh. [5]: 17%
Activity(%) [6]: 106%
Inhibition of RAC1 activity (nucleotide exchange assay) [7]: 46%
TRIO-induced GDP dissociation ([7]; A41 5 μM, mant-GDP-bound RAC1, GTP 1 μM): no effect
inhibitory effect on TRIO-induced nucleotide exchange ([7]; A41 5 μM, mant-GTP 5 μM): abolished
inhibitory effect on TRIO-induced nucleotide exchange ([7]; A41 5 μM, mant-GTP increased from 1 to 2.5 μM): strongly decreased
plateau (Kmax) of nucleotide exchange ([7]; TIAM DH-PH 10 nM, mant-GTP 1 μM, concentration-dependent): decreased the plateau
spontaneous activity of RAC1 ([7]; no GEF): without affecting
Activity(%) [8]: 74%
% inh. [9]: 29%
Activity(%) [10]: 92%
